Data on 4 substances can be found in US20220204575A1, “MODULATING SURVIVAL OF THERAPEUTIC CELLS AND METHODS, CELLS AND NUCLEIC ACIDS RELATED THERETO” (The Regents of the University of California, priority 2019, published 2022).

Common to all, as to assay type: cell-based
One assay has as its system engineered T cells. The experiment in a line: Inducible tBID circuit with varied levels of constitutive BCL-2 expression, T cell survival. Conditions: constant antigen-induced tBID expression, varied constitutive BCL-2. The text has this:
The ability of anti-apoptotic BCL-2 to buffer a pro-apoptotic protein was further tested in an inducible tBID circuit (described in more detail below) with varied levels of constitutive BCL-2 expression (schematically depicted in FIG. 5). In this experiment, constant levels of tBID expression were induced by the presence of antigen expressing target cells, BCL-2 expression levels were varied, and the amount of T cell survival at different levels of BCL-2 expression was quantitated (FIG. 6).

A further assay relates to primary human T cells. The experiment in a line: Constitutive overexpression of pro-apoptotic BCL-2 family proteins in T cells, FACS at culture day 12. As for the experimental part: The abilities of several pro-apoptotic proteins (e.g., BIM, truncated Bid (tBID), and BAD) to induce T cell apoptosis when synthetically overexpressed from a constitutive promoter were tested. The tested T cells were also engineered to constitutively overexpress anti-apoptotic BCL-2.
Without being bound by theory, these effects were likely due to leaky expression of BIM, the high effectiveness of BIM in inducing apoptosis, or a combination thereof.

The next assay has as its system T cells. The experiment in a line: Basal T cell death from inducible response element constructs in the absence of synNotch antigen. An excerpt: Differences in the potency of various BCL-2 family members in inducible systems for therapeutic cell population control were also investigated and differences in potency were observed. For example, molecular circuits were designed and tested that included a response element construct including a UAS, inducible by the released transcription factor (TF) domain of a synNotch receptor, driving expression of various different BCL-2 family members (e.g., BIM, tBID, etc.) and a constitutive reporter (mCherry) (see schematic depiction provided in FIG. 19). Upon binding its target antigen, the synNotch receptor releases the TF domain which activates the UAS thereby driving expression of the respective BCL-2 family protein and the mCherry reporter is used to observe the size of the cell population thereafter.

For assay [1], the system named is human primary CD4 T cells. The experiment in a line: Anti-Her2 synNotch driving pro-apoptotic BCL-2 family protein X, T cell survival with antigen-expressing target cells. The settings on record: in the presence of antigen-expressing target cells. As for the experimental part:
For example, a circuit was designed, as schematically depicted in FIG. 27, with an anti-Her2 synNotch driving expression of a pro-apoptotic BCL-2 family protein “X”, where X stands for the various pro-apoptotic BCL-2 family members were tested in the depicted circuit. As shown, upon the anti-Her2 scFv portion of the synNotch receptor binding Her2 expressed by a target cell, the transcription factor (TF) portion of the synNotch, containing Gal4-VP64, is released and inducing expression of the pro-apoptotic BCL-2 family protein “X”. The level of induced apoptosis in the presence of cells expressing the target antigen, as compared to control cells not expressing the target antigen, was then assessed.
Results of testing BID, tBID, PUMA, BMF, HRK and BIK as pro-apoptotic BCL-2 family protein “X” in this system are shown in FIG. 28, along with a negative control employing BFP in place of the pro-apoptotic BCL-2 family protein “X”.
Thus, the therapeutic cells encoding the BID circuit were able to survive BID induction.

Regarding “BCL-2: anti-apoptotic BCL-2 protein, human UniProt P10415, SEQ ID NO: 105”, the “T cell survival at different levels of BCL-2 expression” value in the assay with engineered T cells was “titratably buffers against apoptosis”; with engineered T cells (listed as BCL2), “less tBID-induced apoptosis”. Besides, in the assay with primary human T cells (constitutive co-expression of BCL-2), the “buffering against apoptotic effects of tBID and BIM” value is reported as “at least partially buffer against the apoptotic effects”.
For the substance “BIM: pro-apoptotic BCL-2 family protein, human BIM UniProt O43521, SEQ ID NO: 99”, the “basal T cell death from leaky expression” value in the assay on T cells (absence of synNotch target antigen, mCherry reporter) is listed as “sufficient to cause widespread T cell death”. Besides, the “cell death from uninduced inducible construct” value with T cells (uninduced, in the absence of co-expression with anti-apoptotic BCL-2) is on record as “leads to significant levels of cell death”. Besides, the “ability to induce T cell apoptosis / drive T cell death” value in the assay with primary human T cells (constitutive expression, with constitutive overexpression of BCL-2, culture day 12) is “drove significant apoptosis”.
Turning to “BMF: pro-apoptotic BMF protein, human UniProt Q96LC9”, the “induced apoptosis of T cells” value in assay [1] was “induce apoptosis of human primary CD4 T cells”.
Still for that read-out and setting: under “HRK: pro-apoptotic HRK protein, human UniProt O00198, SEQ ID NO: 103” stands “induce apoptosis of human primary CD4 T cells”.
